Measurements: paper PMC6372667 (Experimental & Molecular Medicine, 2019)
Like-named read-outs stand apart in the source and are kept apart here.

How the values were obtained:
in vitro = in vitro ADME; conditions: for BBB permeation class: classified by Pe, given in words
Experimental: PAMPA (parallel artificial membrane permeation assay) was used as a high-throughput assay to predict BBB permeation. Porcine polar brain lipid (PBL) was used as an artificial membrane to predict BBB permeation. Initially, the test compound was dissolved in DMSO at 5 mg/mL. This compound stock solution (10 µL) was diluted 200-fold in a universal buffer at pH 7.4 and mixed with a multi 8-channel pipette to obtain the secondary stock solution (final concentration 25 µg/mL). The secondary stock solution (200 µL) was placed in the donor wells. The filter membrane was coated with PBL in dodecane (4 mL volume of 20 mg/mL PBL in dodecane), and 5 µL of BBB-1 lipid solution was spread on PBL by pipette. The acceptor well was filled with […] of Acceptor Sink Buffer. The acceptor filter plate was cautiously positioned on the donor plate to assemble a “sandwich” (comprising an aqueous acceptor, artificial lipid membrane and aqueous donor with test compound on the top, middle and bottom, respectively). The test compound diffuses from the donor well to the acceptor well through the lipid membrane. After 4 h of incubation at pH 7.4 and 25 °C, the concentration of the compound in the acceptor, donor, reference and blank wells was estimated with a UV plate reader, Epoch Microplate Spectrophotometer (BioTek Instruments, Inc., Winooski, VT, USA). […] Samples were analyzed in quadruplets, and the average of the four runs was reported. To monitor the consistency of the analysis set, quality control standards were run with each sample set.
PAMPA-BBB, an in vitro artificial membrane permeability assay for the BBB, is one of the most reliable physicochemical screening tools in the early stage discovery of CNS-targeted drugs. The PAMPA-BBB system models the transcellular passive diffusion of chemicals across the BBB and measures strictly passive transport mechanisms via an artificial lipid membrane on effective permeability (Pe, cm/s).

[1] = biological target: T1, BACE1 (human recombinant β-secretase) (Homo sapiens, UniProt P56817); assay: In vitro BACE1 FRET enzyme assay; type: biochemical; conditions: mean ± S.D. of three experiments
T1 sequence (P56817 46-501): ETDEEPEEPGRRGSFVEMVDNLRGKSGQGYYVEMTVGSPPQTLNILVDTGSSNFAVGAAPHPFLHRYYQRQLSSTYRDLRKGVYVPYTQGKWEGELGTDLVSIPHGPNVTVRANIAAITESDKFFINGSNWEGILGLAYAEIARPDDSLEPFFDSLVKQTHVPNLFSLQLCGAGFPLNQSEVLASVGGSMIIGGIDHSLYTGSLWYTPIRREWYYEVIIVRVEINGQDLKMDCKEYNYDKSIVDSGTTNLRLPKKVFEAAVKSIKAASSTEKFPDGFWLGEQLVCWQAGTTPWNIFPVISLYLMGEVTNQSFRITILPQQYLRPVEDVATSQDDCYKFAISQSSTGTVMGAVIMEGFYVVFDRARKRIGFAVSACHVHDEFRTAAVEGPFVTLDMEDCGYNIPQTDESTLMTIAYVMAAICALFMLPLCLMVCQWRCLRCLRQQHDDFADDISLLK
From the text: (§1) BACE1 (human recombinant β-secretase) ([…]) and the BACE1 FRET (fluorescence resonance energy transfer) assay kit Red were purchased from ThermoFisher Scientific (P2985; Waltham, MA, USA). […] For the cell culture experiment, Dulbecco’s modified Eagle’s medium (DMEM), Opti-MEM, fetal bovine serum (FBS), and penicillin/streptomycin were obtained from Capricorn Scientific (Ebsdorfergrund, Germany). β-secretase inhibitor III (β-SI) was purchased from Calbiochem (Darmstadt, Germany). The protease inhibitor mixture (a mixture of AEBSF, pepstatin A, E-64, bestain, leupeptin, and aprotinin) was purchased from Sigma-Aldrich (St. Louis, MO, USA). Enzyme-linked immunosorbent assay (ELISA) kits for Aβ40 and Aβ42 were obtained from IBL (Kunma, Japan). All chemicals and solvents used were reagent grade, purchased from commercial sources, and used as received.
The BACE1 FRET assay was carried out according to the manufacturer’s instructions with slight modifications as previously described. The assay was performed in a […] black plate using a multi-pipette.

B16F10 mouse melanoma = assay: MTT cytotoxicity assay, B16F10; type: cell-based; conditions: 24 h
Experimental: (§2) Cytotoxicity was assessed using the MTT assay. Briefly, the cells were seeded into a 96-well plate at a density of 1×10^5 cells per well in 100 µL of corresponding media and incubated at 37 °C in an incubator under 5% CO2 tension for 24 h. The culture media were then replaced with 100 µL of fresh serum-free media in the presence of varied concentrations of pterosin derivatives, and cells were incubated for an additional 24 h. The control was treated with an equal amount of DMSO present in the assay for a 5 mM concentration. Then, 100 µL of MTT solution (0.5 mg/mL in Phosphate Buffered Saline (PBS)) was added to each culture. To measure the proportion of surviving cells, the media were replaced with 100 µL of DMSO 2 h after the administration of MTT solution. The absorbance was measured at 570 nm using a spectrophotometric plate reader (Molecular Devices, Sunnyvale, CA, USA).

C6 rat glial cells = assay: MTT cytotoxicity assay, C6; type: cell-based; conditions: 24 h
Experimental: as §2

[2] = biological target: T1, BACE1 (human recombinant β-secretase); assay: Kinetic analysis of BACE1 inhibition (Dixon and Lineweaver−Burk plots); type: biochemical; conditions: for Inhibition type BACE1: Dixon and Lineweaver−Burk plots
Experimental: (§3) The Ki was determined by interpretation of the Dixon plot, with the value of the x-axis intercept taken as −Ki.
Dixon plots for BACE1 inhibition by pterosin derivatives.
Dixon plots for BACE1 inhibition by pteroside derivatives.

horse serum BChE [3] = biological target: T2, horse serum BChE (Equus caballus, UniProt P81908); assay: In vitro cholinesterase enzyme assay (Ellman), BChE; type: biochemical
T2 construct: horse serum BChE (EC 3.1.1.8); purchased Sigma-Aldrich Co; host or cells: horse serum
T2 sequence (P81908 whole entry): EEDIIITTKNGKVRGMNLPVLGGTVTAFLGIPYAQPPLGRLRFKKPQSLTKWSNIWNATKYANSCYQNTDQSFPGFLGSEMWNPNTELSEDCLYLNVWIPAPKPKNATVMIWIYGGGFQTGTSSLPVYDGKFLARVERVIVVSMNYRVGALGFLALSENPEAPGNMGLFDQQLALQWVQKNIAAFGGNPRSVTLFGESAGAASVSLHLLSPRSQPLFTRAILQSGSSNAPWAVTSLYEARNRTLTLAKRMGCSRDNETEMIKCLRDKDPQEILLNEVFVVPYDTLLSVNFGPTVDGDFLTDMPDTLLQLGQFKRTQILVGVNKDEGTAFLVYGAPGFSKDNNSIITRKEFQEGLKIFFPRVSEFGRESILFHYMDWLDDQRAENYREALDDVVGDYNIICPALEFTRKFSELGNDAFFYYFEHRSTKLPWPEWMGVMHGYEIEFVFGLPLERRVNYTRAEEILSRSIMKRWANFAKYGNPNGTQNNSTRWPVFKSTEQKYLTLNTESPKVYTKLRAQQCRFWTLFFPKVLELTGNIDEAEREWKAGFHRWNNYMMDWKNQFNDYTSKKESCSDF
From the text: as §1
The inhibitory activities of pterosin derivatives against cholinesterases were measured using the method developed by Ellman et al.[32]. The reaction mixture contained 140 μL of sodium phosphate buffer (pH 8.0), 20 μL of test sample solution (final concentration of the compound 100 μM), and 20 μL of AChE or BChE solution, mixed and incubated for 15 min at room temperature. […] The reactions were initiated following the addition of 10 μL of DTNB and 10 μL of acetyl thiocholine iodide for the AChE assay or butyryl thiocholine chloride for the BChE assay in 96-well microplates, which were incubated for 15 min.

horse serum BChE [4] = biological target: T2, horse serum BChE; assay: Kinetic analysis of BChE inhibition (Dixon and Lineweaver−Burk plots); type: biochemical; conditions: for Inhibition type BChE: Dixon and Lineweaver−Burk plots
Experimental: as §3
Dixon plots for BChE inhibition by pterosin derivatives. (2S,3R)-Pterosin C (A), (2R,3R)-pterosin C (B), and (2R)-pterosin B (C) were tested in the presence of substrate concentrations of 0.2 mM (●), 0.4 mM (○), and 0.8 mM (▼).
Dixon plots for BChE inhibition by pteroside derivatives. (2R)-pteroside B (A), (2R,3R)-pteroside C (B), and (3S)-pteroside D (C) were tested in the presence of substrate concentrations of 0.2 mM (●), 0.4 mM (○), and 0.8 mM (▼). Lineweaver-Burk plots for BChE inhibition were generated with inhibitor concentrations of 0 µM (Δ), 4 µM (▼), 20 µM (○), and 100 µM (●) for (2R)-pteroside B (D); 0 µM (Δ), 0.8 µM (▼), 4 µM (○), and 20 µM (●) for (2R,3R)-pteroside C (E) and (3S)-pteroside D (F).

Electric eel AChE = biological target: T3, Electric eel AChE (Electrophorus electricus, UniProt O42275); assay: In vitro cholinesterase enzyme assay (Ellman), AChE; type: biochemical
T3 construct: purchased Sigma-Aldrich Co
T3 sequence (O42275 24-633): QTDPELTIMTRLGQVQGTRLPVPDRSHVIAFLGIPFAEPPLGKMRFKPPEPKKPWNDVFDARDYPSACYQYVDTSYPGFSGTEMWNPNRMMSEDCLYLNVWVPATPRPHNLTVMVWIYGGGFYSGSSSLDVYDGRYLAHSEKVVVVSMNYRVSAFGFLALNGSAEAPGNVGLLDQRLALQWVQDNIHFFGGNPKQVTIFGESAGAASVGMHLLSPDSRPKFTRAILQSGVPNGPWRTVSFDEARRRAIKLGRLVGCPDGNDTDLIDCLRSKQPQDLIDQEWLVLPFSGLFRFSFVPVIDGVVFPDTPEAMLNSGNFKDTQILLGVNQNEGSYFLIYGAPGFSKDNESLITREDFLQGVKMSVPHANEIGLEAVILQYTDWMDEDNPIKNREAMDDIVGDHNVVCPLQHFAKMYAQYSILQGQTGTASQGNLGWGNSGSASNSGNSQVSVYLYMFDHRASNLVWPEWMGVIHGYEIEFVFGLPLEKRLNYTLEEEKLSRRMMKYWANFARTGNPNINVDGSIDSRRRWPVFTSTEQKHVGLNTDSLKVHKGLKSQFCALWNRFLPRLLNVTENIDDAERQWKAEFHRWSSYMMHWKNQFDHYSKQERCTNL

[5] = test system: NIH3T3 mouse embryo fibroblasts; assay: MTT cytotoxicity assay, NIH3T3; type: cell-based; conditions: 24 h
Experimental: as §2

SMILES | BBB permeation class (in vitro; PAMPA-BBB) | IC50 [1] | LD50 Based on MTT Assay, B16F10 (B16F10 mouse melanoma) | LD50 Based on MTT Assay, C6 (C6 rat glial cells) | Inhibition type BACE1 [2] | Inhibition type BChE (horse serum BChE [4]) | LD50 Based on MTT Assay, NIH3T3 [5] | other results
Cc1cc2c(c(C)c1CCO)C(=O)[C@H](C)C2 [(2R)-Pterosin B, (2R)-pterosin B] | high BBB permeation | 29.6 ± 3.5 µM | >5,000 µM | >5,000 µM | Noncompetitive | Noncompetitive | >5,000 µM | Pe fold higher than verapamil (in vitro; PAMPA-BBB): 1.7 fold; Pe fold higher than quercetin (in vitro; from log Pe −4.22 versus literature log Pe of quercetin): approximately 600 fold; Pe fold higher than berberine (in vitro; from log Pe −4.22 versus log Pe −5.8 of berberine): approximately 37 fold; Papp at 4 h, 25 µg/mL (in vitro; pig, PAMPA, 4 h, pH 7.4, 25 °C, mean ± SD of quadruple experiments, read-out: PAMPA-BBB permeability Pe): 60.3 ± 9.8 ×10⁻⁶ cm/s; Ki [2]: 38.3 µM; IC50 (horse serum BChE [3]): 48.1 ± 0.59 µM; BChE-inhibitory activity fold lower than berberine (horse serum BChE [3]; ratio of IC50): ~15 fold; Ki (horse serum BChE [4]): 53.5 µM; IC50 (Electric eel AChE): 16.2 ± 1 µM; AChE-inhibitory activity fold lower than berberine (Electric eel AChE; ratio of IC50): approximately 40 fold
Cc1cc2c(c(C)c1CCOC1OC(CO)C(O)C(O)C1O)C(=O)C(C)C2O [(2R,3R)-Pteroside C, (2R,3R)-pteroside C] | very low BBB permeability | 9.74 ± 1.9 µM | >5,000 µM | >5,000 µM | Mixed-type | Mixed-type | >5,000 µM | Ki ([2]; determined by Dixon plot, read-out: Ki BACE1): 12.6 µM; IC50 (horse serum BChE [3]; mean ± S.D. of three experiments, read-out: IC50 BChE): 5.29 ± 0.82 µM; Ki (horse serum BChE [4]; determined by Dixon plot, read-out: Ki BChE): 9.62 µM; IC50 (Electric eel AChE; mean ± S.D. of three experiments, read-out: IC50 AChE): 3.77 ± 0.38 µM
